# Measurements as given in ChEMBL document CHEMBL1201862, “PubChem BioAssay data set” (2004).
#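 Dose response: 5 concentrations. Exposure: 48 h. Format: 96-well plates. Endpoint: linear interpolation; highest concentration if not reached. GI50 = concentration required for 50% inhibition of growth.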 Active and inactive are the calls of the source. Rule as the data show it: active = GI50 up to about 1.1 µM and inactive = higher.
# Tests used:
# Assay in all cases: DTP human tumour cell line panel, 48 h
# [1] = system: HT-29
# [2] = system: SNB-75
# [3] = system: DU-145
# [4] = system: HCT-116
# [5] = system: Malme-3M
# [6] = system: HCC 2998
# [7] = system: SF-268
# [8] = system: A498
# [9] = system: NCI-H23
# [10] = system: UACC-257
# [11] = system: TK-10
# [12] = system: OVCAR-4
# [13] = system: BT-549
# [14] = system: 786-0
# [15] = system: UO-31
# [16] = system: COLO 205
# [17] = system: U-251
# [18] = system: RXF 393
# [19] = system: NCI/ADR-RES
# [20] = system: IGROV-1
# [21] = system: SNB-19
# [22] = system: SF-539
# [23] = system: NCI-H226
# [24] = system: KM12
# [25] = system: OVCAR-8
# [26] = system: ACHN
# [27] = system: RPMI-8226
# [28] = system: MDA-MB-435
# [29] = system: SK-OV-3
# [30] = system: HCT-15
# [31] = system: SK-MEL-28
# [32] = system: SK-MEL-5
# [33] = system: SF-295
# [34] = system: UACC-62
# [35] = system: MDA-MB-231
# [36] = system: OVCAR-3
# [37] = system: MCF7
# [38] = system: SR
# [39] = system: K562
# [40] = system: MOLT-4
# [41] = system: NCI-H460
# [42] = system: T47D
# [43] = system: HL-60
# [44] = system: CAKI-1
# [45] = system: OVCAR-5
# [46] = system: SW-620
# [47] = system: A549
# [48] = system: MDA-N
# [49] = system: CCRF-CEM
# [50] = system: EKVX
# [51] = system: SN12C
# [52] = system: HOP-62
# [53] = system: LOX IMVI
# [54] = system: PC-3
# [55] = system: NCI-H522
# [56] = system: SK-MEL-2
# [57] = system: M14
# [58] = system: Hs-578T
structure (smiles),measurement,setting,value
CS(=O)(=O)OCCn1c(=O)n(CCOS(C)(=O)=O)c(=O)n(CCOS(C)(=O)=O)c1=O,GI50,[1],> 100 µM (inactive)
same,GI50,[2],> 100 µM (inactive)
same,GI50,[3],> 100 µM (inactive)
same,GI50,[4],> 100 µM (inactive)
same,GI50,[5],> 100 µM (inactive)
same,GI50,[6],> 100 µM (inactive)
same,GI50,[7],> 100 µM (inactive)
same,GI50,[8],> 100 µM (inactive)
same,GI50,[9],> 100 µM (inactive)
same,GI50,[10],> 100 µM (inactive)
same,GI50,[11],> 100 µM (inactive)
same,GI50,[12],> 100 µM (inactive)
same,GI50,[13],> 100 µM (inactive)
same,GI50,[14],> 100 µM (inactive)
same,GI50,[15],> 100 µM (inactive)
same,GI50,[16],> 100 µM (inactive)
same,GI50,[17],> 100 µM (inactive)
same,GI50,[18],> 100 µM (inactive)
same,GI50,[19],> 100 µM (inactive)
same,GI50,[20],> 100 µM (inactive)
same,GI50,[21],> 100 µM (inactive)
same,GI50,[22],> 100 µM (inactive)
same,GI50,[23],> 100 µM (inactive)
same,GI50,[24],> 100 µM (inactive)
same,GI50,[25],> 100 µM (inactive)
same,GI50,[26],> 100 µM (inactive)
same,GI50,[27],> 100 µM (inactive)
same,GI50,[28],> 100 µM (inactive)
same,GI50,[29],> 100 µM (inactive)
same,GI50,[30],> 100 µM
same,GI50,[31],> 100 µM (inactive)
same,GI50,[32],> 100 µM (inactive)
same,GI50,[33],> 100 µM (inactive)
same,GI50,[34],> 100 µM (inactive)
same,GI50,[35],> 100 µM (inactive)
same,GI50,[36],> 100 µM (inactive)
same,GI50,[37],> 100 µM (inactive)
same,GI50,[38],> 100 µM (inactive)
same,GI50,[39],> 100 µM (inactive)
same,GI50,[40],> 100 µM (inactive)
same,GI50,[41],> 100 µM (inactive)
same,GI50,[42],> 100 µM (inactive)
same,GI50,[43],> 100 µM (inactive)
same,GI50,[44],> 100 µM (inactive)
same,GI50,[45],> 100 µM (inactive)
same,GI50,[46],> 100 µM (inactive)
same,GI50,[47],> 100 µM (inactive)
same,GI50,[48],> 100 µM (inactive)
same,GI50,[49],> 100 µM (inactive)
same,GI50,[50],> 100 µM (inactive)
same,GI50,[51],> 100 µM (inactive)
same,GI50,[52],> 100 µM (inactive)
same,GI50,[53],36.3 µM (inactive)
S=C1c2ccccc2N=C(NC2CCCC2)C2CSCN12 (configuration not stated),GI50,[1],48.5 µM (inactive)
same,GI50,[3],> 100 µM (inactive)
same,GI50,[4],80.7 µM (inactive)
same,GI50,[5],> 100 µM (inactive)
same,GI50,[6],65.6 µM (inactive)
same,GI50,[7],49.2 µM (inactive)
same,GI50,[8],88.9 µM (inactive)
same,GI50,[54],40.6 µM (inactive)
same,GI50,[10],51.5 µM (inactive)
same,GI50,[11],> 100 µM (inactive)
same,GI50,[12],> 100 µM (inactive)
same,GI50,[13],> 100 µM (inactive)
same,GI50,[14],> 100 µM (inactive)
same,GI50,[15],65.2 µM (inactive)
same,GI50,[55],37.5 µM (inactive)
same,GI50,[16],> 100 µM (inactive)
same,GI50,[17],95.5 µM (inactive)
same,GI50,[18],91.6 µM (inactive)
same,GI50,[19],> 100 µM (inactive)
same,GI50,[20],> 100 µM (inactive)
same,GI50,[21],> 100 µM (inactive)
same,GI50,[23],88.5 µM (inactive)
same,GI50,[24],20.4 µM (inactive)
same,GI50,[25],> 100 µM (inactive)
same,GI50,[26],> 100 µM (inactive)
same,GI50,[27],75.2 µM (inactive)
same,GI50,[28],76 µM (inactive)
same,GI50,[29],> 100 µM (inactive)
same,GI50,[30],> 100 µM
same,GI50,[31],89.7 µM (inactive)
same,GI50,[56],> 100 µM (inactive)
same,GI50,[32],49.2 µM (inactive)
same,GI50,[33],> 100 µM (inactive)
same,GI50,[34],43.5 µM (inactive)
same,GI50,[35],> 100 µM (inactive)
same,GI50,[57],91.8 µM (inactive)
same,GI50,[36],97.1 µM (inactive)
same,GI50,[37],67.6 µM (inactive)
same,GI50,[38],39.6 µM (inactive)
same,GI50,[39],39.8 µM (inactive)
same,GI50,[40],26.3 µM (inactive)
same,GI50,[41],61.1 µM (inactive)
same,GI50,[42],48.3 µM (inactive)
same,GI50,[44],> 100 µM (inactive)
same,GI50,[45],> 100 µM (inactive)
same,GI50,[46],> 100 µM (inactive)
same,GI50,[47],> 100 µM (inactive)
same,GI50,[49],32 µM (inactive)
same,GI50,[50],37.2 µM (inactive)
same,GI50,[51],> 100 µM (inactive)
same,GI50,[58],44.4 µM (inactive)
same,GI50,[52],> 100 µM (inactive)
same,GI50,[53],75.2 µM (inactive)
CC(C)=CCCC1(Sc2ccccc2)C(=O)OCC1C=C(C)C (configuration not stated),GI50,[2],36.6 µM (inactive)
same,GI50,[4],11.5 µM (inactive)
same,GI50,[5],17.5 µM (inactive)
same,GI50,[6],29.8 µM (inactive)
same,GI50,[7],38.6 µM (inactive)
same,GI50,[8],52.4 µM (inactive)
same,GI50,[54],31.8 µM (inactive)
same,GI50,[9],31.3 µM (inactive)
same,GI50,[10],17.5 µM (inactive)
same,GI50,[11],34.8 µM (inactive)
same,GI50,[12],29 µM (inactive)
same,GI50,[13],36.3 µM (inactive)
same,GI50,[14],17.7 µM (inactive)
same,GI50,[15],22.6 µM (inactive)
same,GI50,[55],23.2 µM (inactive)
same,GI50,[16],23.2 µM (inactive)
same,GI50,[17],27.7 µM (inactive)
same,GI50,[18],17.1 µM (inactive)
same,GI50,[19],21.2 µM (inactive)
same,GI50,[20],16.8 µM (inactive)
same,GI50,[21],21.5 µM (inactive)
same,GI50,[22],20.6 µM (inactive)
same,GI50,[23],24.3 µM (inactive)
same,GI50,[24],27 µM (inactive)
same,GI50,[25],30.5 µM (inactive)
same,GI50,[26],32.5 µM (inactive)
same,GI50,[27],21.5 µM (inactive)
same,GI50,[28],32.1 µM (inactive)
same,GI50,[29],21.1 µM (inactive)
same,GI50,[30],29.9 µM
same,GI50,[31],47.3 µM (inactive)
same,GI50,[56],18.5 µM (inactive)
same,GI50,[32],20.3 µM (inactive)
same,GI50,[33],36.7 µM (inactive)
same,GI50,[35],47.2 µM (inactive)
same,GI50,[57],17.3 µM (inactive)
same,GI50,[36],17.3 µM (inactive)
same,GI50,[37],38.9 µM (inactive)
same,GI50,[40],7.31 µM (inactive)
same,GI50,[41],18.3 µM (inactive)
same,GI50,[42],22.4 µM (inactive)
same,GI50,[44],23.2 µM (inactive)
same,GI50,[45],21.3 µM (inactive)
same,GI50,[46],61.9 µM (inactive)
same,GI50,[47],13.5 µM (inactive)
same,GI50,[48],19.9 µM (inactive)
same,GI50,[49],32.4 µM (inactive)
same,GI50,[50],19 µM (inactive)
same,GI50,[51],15 µM (inactive)
same,GI50,[52],48.9 µM (inactive)
same,GI50,[53],16.5 µM (inactive)
